Measurements reported in PubChem BioAssay (NCI).
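Results reflect a 48-hour exposure of cells in 96-well plates to compound at five concentrations. At the GI50, growth is halved. The concentration for full growth arrest is given as TGI.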

Tests used:
Assay in all cases: NCI tumour cell line growth inhibition, 48 h
786-0 renal = test system: 786-0 renal
A498 renal = test system: A498 renal
A549 NSCLC = test system: A549 NSCLC
ACHN renal = test system: ACHN renal
CAKI-1 renal = test system: CAKI-1 renal
CCRF-CEM leukemia = test system: CCRF-CEM leukemia
COLO 205 colon = test system: COLO 205 colon
DLD-1 colon = test system: DLD-1 colon
DMS 273 small cell lung = test system: DMS 273 small cell lung
EKVX NSCLC = test system: EKVX NSCLC
HCC-2998 colon = test system: HCC-2998 colon
HCT-116 colon = test system: HCT-116 colon
HL-60(TB) leukemia = test system: HL-60(TB) leukemia
HOP-18 NSCLC = test system: HOP-18 NSCLC
HOP-62 NSCLC = test system: HOP-62 NSCLC
HT29 colon = test system: HT29 colon
IGROV1 ovarian = test system: IGROV1 ovarian
K-562 leukemia = test system: K-562 leukemia
KM12 colon = test system: KM12 colon
KM20L2 colon = test system: KM20L2 colon
LOX IMVI melanoma = test system: LOX IMVI melanoma
LXFL 529 NSCLC = test system: LXFL 529 NSCLC
M14 melanoma = test system: M14 melanoma
M19-MEL melanoma = test system: M19-MEL melanoma
MALME-3M melanoma = test system: MALME-3M melanoma
MOLT-4 leukemia = test system: MOLT-4 leukemia
NCI-H226 lung = test system: NCI-H226 lung
NCI-H23 lung = test system: NCI-H23 lung
NCI-H460 lung = test system: NCI-H460 lung
OVCAR-5 ovarian = test system: OVCAR-5 ovarian
OVCAR-8 ovarian = test system: OVCAR-8 ovarian
RPMI-8226 leukemia = test system: RPMI-8226 leukemia
RXF-631 renal = test system: RXF-631 renal
SF-268 CNS = test system: SF-268 CNS
SF-295 CNS = test system: SF-295 CNS
SK-MEL-5 melanoma = test system: SK-MEL-5 melanoma
SK-OV-3 ovarian = test system: SK-OV-3 ovarian
SN12C renal = test system: SN12C renal
SNB-19 CNS = test system: SNB-19 CNS
SNB-75 CNS = test system: SNB-75 CNS
SNB-78 CNS = test system: SNB-78 CNS
SR leukemia = test system: SR leukemia
SW-620 colon = test system: SW-620 colon
TK-10 renal = test system: TK-10 renal
U251 CNS = test system: U251 CNS
UACC-257 melanoma = test system: UACC-257 melanoma
UACC-62 melanoma = test system: UACC-62 melanoma
UO-31 renal = test system: UO-31 renal
XF 498 CNS = test system: XF 498 CNS
DMS 114 small cell lung = test system: DMS 114 small cell lung
HCT-15 colon = test system: HCT-15 colon
HOP-92 NSCLC = test system: HOP-92 NSCLC
MCF7 breast = test system: MCF7 breast
NCI-H522 lung = test system: NCI-H522 lung
NCI/ADR-RES ovarian = test system: NCI/ADR-RES ovarian
OVCAR-3 ovarian = test system: OVCAR-3 ovarian
OVCAR-4 ovarian = test system: OVCAR-4 ovarian
P388 leukemia = test system: P388 leukemia
P388/ADR leukemia = test system: P388/ADR leukemia
RXF 393 renal = test system: RXF 393 renal
SF-539 CNS = test system: SF-539 CNS
SK-MEL-2 melanoma = test system: SK-MEL-2 melanoma
SK-MEL-28 melanoma = test system: SK-MEL-28 melanoma
SN12K1 renal = test system: SN12K1 renal
BT-549 breast = test system: BT-549 breast
DU-145 prostate = test system: DU-145 prostate
HS 578T breast = test system: HS 578T breast
MDA-MB-231 breast = test system: MDA-MB-231 breast
MDA-MB-435 = test system: MDA-MB-435
MDA-N = test system: MDA-N
PC-3 prostate = test system: PC-3 prostate
T-47D breast = test system: T-47D breast

Oc1ccc([Te]CCNCC[Te]c2ccc(O)cc2)cc1
TGI (786-0 renal): > 100 µM
TGI (A498 renal): 46.6 µM
TGI (A549 NSCLC): 16.6 µM
TGI (ACHN renal): 94.8 µM
TGI (CAKI-1 renal): > 100 µM
TGI (CCRF-CEM leukemia): > 100 µM
TGI (COLO 205 colon): 22.4 µM
TGI (DLD-1 colon): > 100 µM
TGI (DMS 273 small cell lung): > 100 µM
TGI (EKVX NSCLC): 19 µM
TGI (HCC-2998 colon): 38.2 µM
TGI (HCT-116 colon): 28.4 µM
TGI (HL-60(TB) leukemia): 38.5 µM
TGI (HOP-18 NSCLC): 66.5 µM
TGI (HOP-62 NSCLC): 46.5 µM
TGI (HT29 colon): > 100 µM
TGI (IGROV1 ovarian): > 100 µM
TGI (K-562 leukemia): > 100 µM
TGI (KM12 colon): > 100 µM
TGI (KM20L2 colon): 55.1 µM
TGI (LOX IMVI melanoma): 43 µM
TGI (LXFL 529 NSCLC): 32 µM
TGI (M14 melanoma): 55.3 µM
TGI (M19-MEL melanoma): 50.5 µM
TGI (MALME-3M melanoma): 69.3 µM
TGI (MOLT-4 leukemia): > 100 µM
TGI (NCI-H226 lung): 46.4 µM
TGI (NCI-H23 lung): 23.2 µM
TGI (NCI-H460 lung): 33.9 µM
TGI (OVCAR-5 ovarian): 37.7 µM
TGI (OVCAR-8 ovarian): 48 µM
TGI (RPMI-8226 leukemia): > 100 µM
TGI (RXF-631 renal): 90.2 µM
TGI (SF-268 CNS): > 100 µM
TGI (SF-295 CNS): 75.4 µM
TGI (SK-MEL-5 melanoma): 26.4 µM
TGI (SK-OV-3 ovarian): 98.9 µM
TGI (SN12C renal): > 100 µM
TGI (SNB-19 CNS): > 100 µM
TGI (SNB-75 CNS): 70.8 µM
TGI (SNB-78 CNS): 78.6 µM
TGI (SR leukemia): > 100 µM
TGI (SW-620 colon): > 100 µM
TGI (TK-10 renal): 90.7 µM
TGI (U251 CNS): 25.6 µM
TGI (UACC-257 melanoma): > 100 µM
TGI (UACC-62 melanoma): 45.8 µM
TGI (UO-31 renal): 31.7 µM
TGI (XF 498 CNS): 39.2 µM

C=C(C)C(=O)O[C@H]1CC2=C[C@@H](C[C@@]3(C)O[C@@H]3[C@H]3OC(=O)C(=C)[C@@H]31)OC2=O
TGI (A498 renal): 9.06 µM
TGI (A549 NSCLC): 27.1 µM
GI50 (CAKI-1 renal): 2.63 µM
TGI (CAKI-1 renal): 6.25 µM
GI50 (CCRF-CEM leukemia): 1.18 µM
TGI (CCRF-CEM leukemia): 300 µM
TGI (COLO 205 colon): 3.4 µM
TGI (DLD-1 colon): 3.3 µM
TGI (DMS 114 small cell lung): 9.35 µM
TGI (DMS 273 small cell lung): 8.09 µM
TGI (EKVX NSCLC): 4.82 µM
TGI (HCC-2998 colon): 9.82 µM
GI50 (HCT-116 colon): 1.4 µM
TGI (HCT-116 colon): 4.61 µM
GI50 (HCT-15 colon): 0.773 µM
TGI (HCT-15 colon): 2.72 µM
TGI (HL-60(TB) leukemia): 1.12 µM
GI50 (HOP-18 NSCLC): 6.42 µM
TGI (HOP-18 NSCLC): 10.9 µM
TGI (HOP-62 NSCLC): 98.9 µM
TGI (HOP-92 NSCLC): 2.78 µM
TGI (HT29 colon): 5.93 µM
TGI (IGROV1 ovarian): 9.46 µM
GI50 (K-562 leukemia): 1.21 µM
TGI (K-562 leukemia): 47.6 µM
TGI (KM12 colon): 8.6 µM
TGI (KM20L2 colon): 10.5 µM
TGI (LOX IMVI melanoma): 1.29 µM
TGI (M19-MEL melanoma): 6.52 µM
TGI (MALME-3M melanoma): 5.62 µM
TGI (MCF7 breast): 5.42 µM
GI50 (MOLT-4 leukemia): 0.789 µM
TGI (MOLT-4 leukemia): 12.8 µM
TGI (NCI-H226 lung): 30.7 µM
TGI (NCI-H23 lung): 6.59 µM
TGI (NCI-H460 lung): 10.6 µM
TGI (NCI-H522 lung): 1.71 µM
TGI (NCI/ADR-RES ovarian): 5.18 µM
TGI (OVCAR-3 ovarian): 3.74 µM
TGI (OVCAR-4 ovarian): 6.48 µM
TGI (OVCAR-5 ovarian): 12.2 µM
GI50 (OVCAR-8 ovarian): 0.406 µM
TGI (OVCAR-8 ovarian): 0.707 µM
TGI (P388 leukemia): 15.6 µM
TGI (P388/ADR leukemia): 11.1 µM
GI50 (RPMI-8226 leukemia): 0.915 µM
TGI (RPMI-8226 leukemia): 26.3 µM
TGI (RXF 393 renal): 1.16 µM
GI50 (SF-268 CNS): 0.34 µM
TGI (SF-268 CNS): 2.56 µM
TGI (SF-295 CNS): 11.9 µM
TGI (SF-539 CNS): 8.21 µM
TGI (SK-MEL-2 melanoma): 8.81 µM
GI50 (SK-MEL-28 melanoma): 1.24 µM
TGI (SK-MEL-28 melanoma): 3.61 µM
TGI (SK-MEL-5 melanoma): 8.22 µM
TGI (SK-OV-3 ovarian): 34.9 µM
TGI (SN12C renal): 8.02 µM
TGI (SN12K1 renal): 12.1 µM
TGI (SNB-19 CNS): 49.1 µM
TGI (SNB-75 CNS): 18.4 µM
GI50 (SNB-78 CNS): 1.27 µM
TGI (SNB-78 CNS): 300 µM
TGI (SW-620 colon): 1.94 µM
TGI (U251 CNS): 14.6 µM
TGI (UACC-257 melanoma): 5.63 µM
TGI (UACC-62 melanoma): 7.61 µM
TGI (UO-31 renal): 13.8 µM

CC12OOC(c3ccccc31)c1c2ccc2ccccc12 (stereo not given)
TGI (786-0 renal): 22.3 µM
TGI (A498 renal): 32.1 µM
TGI (A549 NSCLC): 8.43 µM
TGI (ACHN renal): 3.51 µM
TGI (BT-549 breast): 22.3 µM
TGI (CAKI-1 renal): 4.64 µM
TGI (CCRF-CEM leukemia): 2.8 µM
TGI (COLO 205 colon): 3.24 µM
TGI (DLD-1 colon): 3.06 µM
TGI (DMS 114 small cell lung): 2.34 µM
TGI (DMS 273 small cell lung): 21 µM
TGI (DU-145 prostate): 32.4 µM
TGI (EKVX NSCLC): 18.7 µM
TGI (HCC-2998 colon): 16.2 µM
TGI (HCT-116 colon): 3.21 µM
TGI (HCT-15 colon): 5.09 µM
TGI (HL-60(TB) leukemia): 2.72 µM
TGI (HOP-18 NSCLC): 5.9 µM
TGI (HOP-62 NSCLC): 30.2 µM
TGI (HOP-92 NSCLC): 9.94 µM
TGI (HS 578T breast): 78.7 µM
TGI (HT29 colon): 6.02 µM
TGI (IGROV1 ovarian): 3.67 µM
TGI (K-562 leukemia): 3.58 µM
TGI (KM12 colon): 7.43 µM
TGI (KM20L2 colon): 11.3 µM
TGI (LOX IMVI melanoma): 6.41 µM
TGI (LXFL 529 NSCLC): 4.81 µM
TGI (M14 melanoma): 22.6 µM
TGI (M19-MEL melanoma): 9.89 µM
TGI (MALME-3M melanoma): 5.79 µM
TGI (MCF7 breast): 32.4 µM
TGI (MDA-MB-231 breast): 26.6 µM
TGI (MDA-MB-435): 18.2 µM
TGI (MDA-N): 19.5 µM
TGI (MOLT-4 leukemia): 3.42 µM
TGI (NCI-H226 lung): 39.3 µM
TGI (NCI-H23 lung): 26.6 µM
TGI (NCI-H460 lung): 5.48 µM
TGI (NCI-H522 lung): 1.99 µM
TGI (NCI/ADR-RES ovarian): 24.1 µM
TGI (OVCAR-3 ovarian): 5.81 µM
TGI (OVCAR-4 ovarian): 2.43 µM
TGI (OVCAR-5 ovarian): 33.6 µM
TGI (OVCAR-8 ovarian): 20.9 µM
TGI (PC-3 prostate): 18.8 µM
TGI (RPMI-8226 leukemia): 6.24 µM
TGI (RXF 393 renal): 7.53 µM
TGI (RXF-631 renal): 20.1 µM
TGI (SF-268 CNS): 28 µM
TGI (SF-295 CNS): 14.3 µM
TGI (SF-539 CNS): 22.3 µM
TGI (SK-MEL-2 melanoma): 24.9 µM
TGI (SK-MEL-28 melanoma): 27 µM
TGI (SK-MEL-5 melanoma): 21.6 µM
TGI (SK-OV-3 ovarian): 34.3 µM
TGI (SN12C renal): 29.6 µM
TGI (SNB-19 CNS): 30.5 µM
TGI (SNB-75 CNS): 22.5 µM
TGI (SNB-78 CNS): 21.8 µM
TGI (SR leukemia): 3.24 µM
TGI (SW-620 colon): 3.94 µM
TGI (T-47D breast): 3.84 µM
TGI (TK-10 renal): 22.3 µM
TGI (U251 CNS): 28.1 µM
TGI (UACC-257 melanoma): 26.8 µM
TGI (UACC-62 melanoma): 21.2 µM
TGI (UO-31 renal): 23.2 µM
